Where “and” joins values, the source holds several entries; their conditions need not be identical. Equal entries are not always repeated.
Experiments:
[1] = system: non-endocrine cells in insulin-producing cell population (QHJI-I14s04 iPS cell line); assay: Cisplatin or docetaxel treatment in step 6), then extended culture in basal medium containing EGF (Example 2); type: cell-based, human
Excerpt: The differentiation of a QHJI-I14s04 iPS cell line into an insulin-producing cell population was induced by the three-dimensional culture method using a bioreactor according to steps 1) to 6) described above and the previous report (Nature Biotechnology 2014; 32: 1121-1133). Specifically, the iPS cells were subjected to the first culture in a medium (DMEM/1% B-27 (INS+)/Penicillin Streptomycin/dimethyl sulfoxide) containing differentiation-inducing factors (GSK3β inhibitor, ROCK inhibitor and low dose of activin A) under conditions causing action of insulin, and subsequently subjected to the second culture in a medium (DMEM/1% B-27 (INS−)/Penicillin Streptomycin/dimethyl sulfoxide) containing a differentiation-inducing factor (low dose of activin A) under conditions causing no action of insulin to obtain a definitive endoderm cell population. Further, a pancreatic endocrine progenitor cell population obtained by the induction of differentiation from the definitive endoderm cell population was cultured in a medium (Improved MEM/1% B-27 (INS+)/Penicillin Streptomycin) containing differentiation-inducing factors (ALK5 inhibitor II, T3, LDN, Y-secretase inhibitor RO, and ascorbic acid) and FGF receptor 1 inhibitor (PD-166866) to obtain an insulin-producing cell population.
An insulin-producing cell population obtained without the addition of cisplatin and docetaxel was used as a control cell population and subjected to extended culture in the same manner as above.
Marker protein expression (PDX1, CHGA, and Ki67) in each insulin-producing cell population before the start of and after the completion of extended culture was measured by flow cytometry. Samples after the completion of extended culture were collected by sampling three times from the same culture container. The number of cells was measured in an automatic cell counter at the time of sample preparation for flow cytometry, and the total number of cells per mL of the bioreactor was calculated. The number of CHGA-positive cells, the number of PDX1-positive and CHGA-negative cells, and the number of PDX1-negative and CHGA-negative cells were calculated from the obtained total number of cells and the flow cytometry results.

[2] = system: insulin-producing cell population (QHJI-114s04 iPS cell line); conditions: induction of differentiation using medium supplemented with FGF receptor 1 inhibitor; see WO2019/208505; cited from earlier work
[3] = system: non-endocrine cells in insulin-producing cell population (Ff-I14s04 iPS cell line); assay: Extended culture of insulin-producing cell population in basal medium containing EGF (Example 1); type: cell-based, human
Excerpt: The differentiation of a Ff-I14s04 iPS cell line into an insulin-producing cell population was induced by the three-dimensional culture method using a bioreactor and a multiwell plate according to steps 1) to 6) described above and the previous report (Nature Biotechnology 2014; 32: 1121-1133). Specifically, the iPS cells were subjected to the first culture in a medium (DMEM/1% B-27 (INS+)/Penicillin Streptomycin/dimethyl sulfoxide) containing differentiation-inducing factors (GSK3β inhibitor, ROCK inhibitor and low dose of activin A) under conditions causing action of insulin, and subsequently subjected to the second culture in a medium (DMEM/1% B-27 (INS−)/Penicillin Streptomycin/dimethyl sulfoxide) containing a differentiation-inducing factor (low dose of activin A) under conditions causing no action of insulin to obtain a definitive endoderm cell population. Further, a pancreatic endocrine progenitor cell population obtained by the induction of differentiation from the definitive endoderm cell population was cultured in a medium (Improved MEM/1% B-27 (INS+)/Penicillin Streptomycin) containing differentiation-inducing factors (ALK5 inhibitor II, T3, LDN, γ-secretase inhibitor RO, and ascorbic acid) and FGF receptor 1 inhibitor (PD-166866) to obtain an insulin-producing cell population. The exchange from the bioreactor to the multiwell plate was carried out in step 6).
The insulin-producing cell population was subjected to extended culture for 4 weeks in a basal medium (MCDB131/20 mM Glucose/NaHCO3/FAF-BSA/ITS-X/Glutamax/Penicillin Streptomycin). EGF, when added for the purpose of promoting the proliferation of unintended cells, was added at 50 ng/ml (final concentration) to the basal medium for culture.
Marker protein expression (PDX1 and CHGA) in the insulin-producing cell population before the start of and after the completion of extended culture was measured by flow cytometry. Respective samples were collected by sampling from separate culture containers. The number of cells was measured in an automatic cell counter at the time of sample preparation for flow cytometry, and the total number of cells per well of the multiwell plate was calculated. The number of CHGA-positive cells, the number of PDX1-positive and CHGA-negative cells, and the number of PDX1-negative and CHGA-negative cells were calculated from the obtained total number of cells and the flow cytometry results.

[4] = after extended culture 4 weeks, EGF present, average of three samplings
[5] = after extended culture 4 weeks, EGF present, single samplings
[6] = after extended culture involving EGF, with respect to control cell population
[7] = s6d11 (before extended culture); 3 μM cisplatin or 1 μM docetaxel for 7 days from day 4 of step 6)
[8] = after extended culture 4 weeks, EGF present (50 ng/ml)
[9] = extended culture in basal medium containing EGF

Compound: N.N.[Cl][Pt][Cl] [Cisplatin, cisplatin]
- The number of cells CHGA+, average [1, 4]: 23 ×10^4 cells/mL
- The number of cells PDX+/CHGA−, average [1, 4]: 97 ×10^4 cells/mL
- The number of cells PDX−/CHGA−, average [1, 4]: 5.4 ×10^4 cells/mL
- Total number of cells, average [1, 4]: 125 ×10^4 cells/mL
- The number of cells CHGA+ [1, 5]: 24 ×10^4 cells/mL and 21 ×10^4 cells/mL
- The number of cells PDX+/CHGA− [1, 5]: 97 ×10^4 cells/mL and 84 ×10^4 cells/mL and 110 ×10^4 cells/mL
- The number of cells PDX−/CHGA− [1, 5]: 4.5 ×10^4 cells/mL and 4.4 ×10^4 cells/mL and 7.2 ×10^4 cells/mL
- Total number of cells [1, 5]: 125 ×10^4 cells/mL and 109 ×10^4 cells/mL and 141 ×10^4 cells/mL
- proportion of PDX1-negative and CHGA-negative (PDX1−/CHGA−) cells [1, 6]: drastically decreased
- proportion of PDX1-positive and CHGA-negative (PDX1+/CHGA−) cells [1, 6]: no large change
- total number of cells after extended culture (in words) ([1]; extended culture involving EGF): increased
- The number of cells CHGA+ [1, 7]: 88 ×10^4 cells/mL
- The number of cells PDX+/CHGA− [1, 7]: 2.7 ×10^4 cells/mL
- The number of cells PDX−/CHGA− [1, 7]: 0.3 ×10^4 cells/mL
- Total number of cells [1, 7]: 91 ×10^4 cells/mL
- number of CHGA-positive endocrine cells after extended culture (in words) ([1]; with respect to control cell population): not changed

Compound: COc1cc(OC)cc(-c2cc3cnc(N)nc3nc2NC(=O)NC(C)(C)C)c1 [PD-166866, 1-[2-amino-6-(3,5-dimethoxyphenyl)-pyrido(2,3-d)pyrimidin-7-yl]-3-tert-butylurea]
- abundance of CHGA-negative and Ki67-positive (CHGA−/Ki67+) cells (in words) [2]: drastically reduced

Compound: EGF: epidermal growth factor added at 50 ng/ml to basal medium to promote proliferation of unintended cells
- The number of cells CHGA+ [3, 8]: 128 ×10^4 cells/well and 123 ×10^4 cells/well
- The number of cells PDX+/CHGA− [3, 8]: 27 ×10^4 cells/well and 32 ×10^4 cells/well
- Total number of cells [3, 8]: 198 ×10^4 cells/well and 222 ×10^4 cells/well and 281 ×10^4 cells/well
- number of CHGA-positive endocrine cells (in words) [3, 9]: no large change
- proportions of PDX1+/CHGA− and PDX1−/CHGA− non-endocrine cells [3, 9]: markedly increased
- total number of cells after extended culture (in words) [3, 9]: increased

Source: patent publication US20240318141A1, “MATURATION AGENT” (Orizuru Therapeutics, Inc., priority 2021, published 2024)
